The text below walks through data of patent US20250282723A1, “AMYLOID TARGETING AGENTS AND METHODS OF USING THE SAME” (The Regents of the University of California, priority 2021, published 2025).

The term Kd denotes the free concentration of one partner at which half of the binding sites on the other are occupied at equilibrium, for simple one-to-one binding.

The target of data set [1] is T1, aggregated αS (Homo sapiens, UniProt P37840).
T1 construct: made in house; host or cells: E. coli BL21 (plasmid pET5α aSynWT)
As to the kind of experiment: Estimation of binding constant (Kd) to aggregated αS. To be noted: probes of FIG. 14; aggregated αS 5 μM, increasing concentration of probe, 5% DMSO in nanopure water. On the procedure: (§1) Expression and purification of recombinant α-synuclein was followed as reported previously.^32 Briefly, α-synuclein was purified from BL21 E. coli as described: A starter culture of transformed bacteria (pET5α aSynWT) (LB broth with ampicillin [final concentration: 100 μg/mL]) was incubated overnight. Following incubation, 25 mL of the started culture was added to a 500 mL mixture of LB broth and ampicillin. Protein expression was induced by addition of IPTG [0.119 g/500 mL] when an OD600 between 0.5-0.8 was achieved. After 4 h, flasks were centrifuged (5,000×g for 20 min) and the supernatant was removed. The pellets were then re-suspended in 20 mM Tris, 25 mM NaCl, 1 mM EDTA, pH 8.0, transferred into a flask, boiled for 1-2 minutes in a microwave, and boiled in a water bath (90° C.) for 30 minutes. Samples were then centrifuged (18,000×g for 30 min) and the supernatant was collected and filtered through a 0.2 μm filter. α-synuclein protein was further purified using 2×5 ml HiTrapQ HP anion exchange columns (GE, #17-1153-01) followed by Size Exclusion Column (Superdex 200, #28-9893-35). Pure α-synuclein determined by Coomassie and western blot were lyophilized and stored at −80° C. until use.
(§2) Aggregation of purified α-synuclein was followed as reported previously.^33 The lyophilized powder was dissolved to a final concentration of 100 μM in sodium phosphate buffer (50 mM, pH 7.4) with 0.1 mM EDTA and 0.02% sodium azide (w/v) and was aggregated at 37° C. with shaking at 500 rpm for 3 weeks. Fibrillization was confirmed by SDS-PAGE gel and standard ThT assay.
Aggregated Aβ(1-42) or αS at a final concentration of 5 μM (based on the molecular weight of the monomer) was mixed with an increasing concentration of each probe in 5% DMSO in nanopure water. Kd's were calculated as previously described.^34 The measurements for each probe were repeated in technical triplicates and the averages are shown with standard deviations. Kd's for probes 1-3 with aggregated Aβ(1-42) have been reported previously.^31

Data set [2] concerns the target T2, aggregated Aβ (1-42) peptides (Homo sapiens, UniProt P05067).
T2 construct: Synthetic Aβ (1-42) peptide was purchased from Biopeptide, Co LLC; purchased Biopeptide, Co LLC (San Diego, California); host or cells: chemical synthesis
As to the kind of experiment: Fluorescence excitation/emission and fluorescence enhancement of probes bound versus unbound to aggregated Aβ (1-42) peptides. The class given is binding. To be noted: probe 4 μM; for Em (λmax) (with Aβ) / Ex (λmax) (with Aβ): aggregated Aβ (1-42) 5 μM; for Em (λmax) (with Aβ) / Ex (λmax) (with Aβ) / Fold Increase with Aβ / Emmax (with Aβ): 5% DMSO in nanopure water; for Fold Increase with Aβ: fluorescence intensity with aggregated Aβ (1-42) 5 μM vs probe alone, at λmax of the amyloid-bound state; for Emmax (with Aβ) / FI with Aβ: probes of FIG. 14, aggregated Aβ(1-42) 5 μM; for FI with Aβ: fold increase of fluorescence, bound vs unbound. The method, then: Preparation of aggregated Aβ (1-42) peptides. Synthetic Aβ (1-42) peptide was purchased from Biopeptide, Co LLC (San Diego, California). Aggregated Aβ (1-42) was prepared as previously described.^26 Briefly, Aβ (1-42) was dissolved in 100% 1,1,1,3,3,3,-hexafluoro-2-propanol (HFIP) to a concentration of 1 mM and put on a shaker at room temperature (RT) for 24 hours. The solution was then diluted in cold nanopure water (2:1 H2O: HFIP). Aliquoted fractions were lyophilized for 3 days before dissolving in nanopure water to a concentration of 100 μM. Aggregated Aβ solutions were incubated and shaken at 37° C. for 3 days before use. The formation of soluble aggregates (67% fibrils as a mixture with 13% oligomers and 20% monomer) was confirmed using a standard thioflavin T (ThT) assay and by Sodium Dodecyl Sulphate-Polyacrylamide Gel Electrophoresis (SDS-PAGE) gel analysis (FIG. 11 and FIG. 12).
(§3) Estimation of fluorescence enhancement of probes when bound versus unbound to aggregated Aβ (1-42) peptides. Aggregated Aβ (1-42) at a final concentration of 5 μM (based on the molecular weight of monomer) was mixed with each fluorescent probe at a final concentration of 4 μM in 5% DMSO in nanopure water. The solution (80 μL) was transferred to a black opaque 96 well plate and the fluorescence was read using a microplate reader. For all probes, the relative fluorescence enhancement of the bound versus unbound state was estimated by comparing the intensity at λmax of the amyloid-bound state.
Synthetic Aβ (1-42) peptide was purchased from Biopeptide, Co LLC (San Diego, California). Aggregated Aβ (1-42) was prepared as previously described.^32 Briefly, monomeric Aβ (1-42) was dissolved in 100% 1,1,1,3,3,3,-hexafluoro-2-propanol (HFIP) to a final concentration of 1 mM and dissolved on a shaker at RT for 24 hours. This solution was then diluted with cold nanopure water (2:1 H2O:HFIP) and aliquoted into fractions. These samples were then lyophilized for 3 days before dissolving in nanopure water to a final concentration of 100 μM. AD solutions were aggregated by incubating and shaking at 37° C. for 3 days before use. The formation of soluble aggregates was confirmed using a standard Thioflavin T (ThT) assay and by SDS-PAGE gel analysis.^1
(§4) Aggregated αS or Aβ(1-42) at a final concentration of 5 μM (based on the molecular weight of monomer) was mixed with each fluorescent probe at a final concentration of 4 μM in 5% DMSO in nanopure water. The solution (80 μL total volume) was transferred to a black opaque 96 well plate and the fluorescence excitation and emission were read using a microplate reader. For emission fluorescence enhancement, the relative fluorescence enhancement of the bound versus unbound state was estimated by comparing the fluorescence intensity at λmax of the amyloid-bound state.

Data set [3] addresses T1, aggregated αS. As to the kind of experiment: Fluorescence emission and fluorescence enhancement of probes bound versus unbound to aggregated αS. The class given is binding. To be noted: probes of FIG. 14; for Emmax (with αS) / FI with αS: aggregated αS 5 μM, probe 4 μM; for Emmax (with αS): 5% DMSO in nanopure water; for FI with αS: fold increase of fluorescence, bound vs unbound; for FI αS/Aβ: selectivity of fluorescence response to αS fibrils over Aβ fibrils. On the procedure: as §1, §2, §4

Data set [4] can be described thus: Fluorescence excitation and emission spectra of free (unbound) probes in aqueous solution. To be noted: for Em (λmax) (Free) / Ex (λmax) (Free): free probe in aqueous solution; for fluorescence intensity of the free probe in aqueous solution compared to ARCAM (1): free probes in aqueous solution, FIG. 2; for Emmax (Free): probes of FIG. 14, free. The class given is physicochemical. On the procedure: as §3, §4

Several values for one entry are separate records, joined by “and”; a condition that tells them apart may be missing. Equal entries are not always repeated.

T2 sequence (P05067 672-713): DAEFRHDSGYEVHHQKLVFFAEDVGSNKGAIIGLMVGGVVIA

As to `CCC1CCCCN1c1ccc2cc(/C=C(\C#N)C(=O)NCCOCCOCCOC)ccc2c1` (racemic) [Compound 5, (E)-2-cyano-3-(6-(2-ethylpiperidin-1-yl)naphthalen-2-yl)-N-(2-(2-(2-methoxyethoxy)ethoxy)ethyl)acrylamide], the Kd at aggregated αS [1] is 5.8 ± 1.8 µM. In data set [2], the “Em (λmax) (with Aβ)” value stood at 567 ± 5 nm; the “Ex (λmax) (with Aβ)” value is given as 443 ± 5 nm; the “Fold Increase with Aβ” value is 1.2 fold and 1.2 ± 0.1 fold; the “Emmax (with Aβ)” value stood at 567 nm. Also, the “FI with Aβ” value in data set [2] is recorded as 1.2 ± 0.1. In addition, at aggregated αS [3], the “Emmax (with αS)” value was 534 nm, the “FI with αS” value was found to be 4.6 ± 0.7 and the “FI αS/Aβ” value worked out at 3.8. Also, in data set [4], the “Em (λmax) (Free)” value came to 575 ± 6 nm, the “Ex (λmax) (Free)” value worked out at 445 ± 1 nm, the “fluorescence intensity of the free probe in aqueous solution compared to ARCAM (1)” value is recorded as “lower but similar in magnitude to ARCAM (1)” and the “Emmax (Free)” value was determined as 575 nm.

`COCCOCCOCCNC(=O)C(C#N)=Cc1ccc2cc(N3CCCCC3)ccc2c1` (mixture of isomers) [Compound 1]: the equilibrium dissociation constant (Kd) at aggregated αS [1] was 3.9 ± 3.9 µM. Moreover, in data set [2], the “Em (λmax) (with Aβ)” value amounted to 560 ± 10 nm, the “Ex (λmax) (with Aβ)” value is 421 ± 4 nm, the “Fold Increase with Aβ” value is reported as 2.1 ± 0.7 fold and the “Emmax (with Aβ)” value turned out to be 560 nm. In data set [2], the “FI with Aβ” value is given as 2.1 ± 0.7. The “Fold Increase with Aβ” value in data set [2] (listed as ARCAM (1)) came to 2.1 fold. Further, on aggregated αS [3], the “Emmax (with αS)” value was 539 nm, the “FI with αS” value came out at 3.0 ± 0.5 and the “FI αS/Aβ” value was determined as 1.4. In addition, in data set [4], the “Em (λmax) (Free)” value is 590 ± 4 nm, the “Ex (λmax) (Free)” value is given as 409 ± 11 nm and the “Emmax (Free)” value was determined as 590 nm.

For the compound `COCCOCCOCCNC(=O)/C(C#N)=C/c1ccc2cc(N3CCCCC3C)ccc2c1` (racemic) [Compound 4, (E)-2-cyano-N-(2-(2-(2-methoxyethoxy)ethoxy)ethyl)-3-(6-(2-methylpiperidin-1-yl)naphthalen-2-yl)acrylamide], on aggregated αS [1], the Kd is 4.5 ± 1.6 µM. In data set [2], the “Em (λmax) (with Aβ)” value stood at 559 ± 8 nm; the “Ex (λmax) (with Aβ)” value was determined as 439 ± 3 nm; the “Fold Increase with Aβ” value is 1.9 fold and 1.9 ± 0.5 fold; the “Emmax (with Aβ)” value is 559 nm. Also, the “FI with Aβ” value in data set [2] came to 1.9 ± 0.5. In addition, at aggregated αS [3], the “Emmax (with αS)” value is given as 531 nm, the “FI with αS” value was 3.8 ± 0.4 and the “FI αS/Aβ” value is recorded as 2.0. Further, in data set [4], the “Em (λmax) (Free)” value stood at 583 ± 1 nm, the “Ex (λmax) (Free)” value turned out to be 431 ± 4 nm, the “fluorescence intensity of the free probe in aqueous solution compared to ARCAM (1)” value is “lower but similar in magnitude to ARCAM (1)” and the “Emmax (Free)” value is given as 583 nm.
